Here are results for 2 compounds from US8232301B2, “Pesticidal compositions” (Dow AgroScience, LLC., priority 2008, dated 2012).

This assay relates to green peach aphid, Myzus persicae (GPA). Description: Foliar spray test of Compound A, nonionic surfactant and AMS combinations on green peach aphid on cabbage. It is filed as in vivo. As to conditions: for Aphid count/plant / % Control (negative values to 0) / Calculated Colby Value: Rep 1-4; for T-Test Results (synergy mark): measured vs Colby, two-sided T-test. The procedure:
Materials and Methods. Solutions of nonionic surfactant (Atlox 4991 0.125% and 0.25% V/V; 1250 and 2500 ppm respectively) and ammonium sulfate (“AMS” 10,200 and 20,400 ppm) were prepared in 500 mL of water. Water used to prepare all solutions was obtained from a Milli Q water purification system. Combination mixtures were created by adding surfactant to aliquots of AMS and water solution to create all two-way combinations of surfactant and AMS. A 500 ppm stock solution of Compound A in water was prepared by adding […] of Compound A to 40 mL of water. 62.4 μL of this 500 ppm solution was added to 20 mL of each AMS, surfactant, or surfactant and AMS solution to create 1.56 ppm Compound A high rate solutions. These high rate solutions of Compound A and surfactant, Compound A and AMS, or Compound A, AMS, and surfactant, were serially diluted in two-fold increments with the appropriate surfactant, AMS, or AMS and surfactant combination solutions, to create a dilution series from 1.56 to 0.19 ppm. A dilution series of Compound A in water with no surfactant or AMS was also prepared. All solutions of surfactant, AMS, or surfactant and AMS, were tested without Compound A. Two-to-three-leaf stage cabbage plants were infested on day 1 with green peach aphid, Myzus persicae (GPA), by transferring aphid infested foliage to each plant. A uniform number of aphids were transferred based on visual inspection of the infested foliage. Plants were sprayed on all surfaces to wet using a hand held aspirator type sprayer on day 2. Four replicates of each treatment combination were sprayed and all stages of live aphids on each plant were counted on day 4. Data were converted to percent control based on the number of aphids in the unsprayed check treatment. Counts of aphids on unsprayed check plants were used to calculate control for surfactant and AMS solutions. Additionally, the average aphid count on the unsprayed check treatment was used to calculate percent control values for plants sprayed with only Compound A. Aphid counts from plants treated with combinations of Compound A and AMS, surfactant, or AMS and surfactant, were converted to percent control by using the average aphid count from the unsprayed check treatment. Negative percent control values were changed to zero percent control values before assessing treatment combinations for synergy. […] Measured efficacy (percent Control) data were compared to calculated Colby values (Colby, S. R. 1967. Calculating Synergistic and Antagonistic Responses of Herbicide Combinations. Weeds 15:20-22) using a two-sided T-test (Minitab).

[1] abbreviates: A 0.19 ppm + NS 1250 ppm + AMS 10,200 ppm.
[2] abbreviates: A 0.19 ppm + NS 1250 ppm + AMS 20,400 ppm.
The mark [3] stands for this setting: A 0.19 ppm + NS 2500 ppm + AMS 10,200 ppm.
[4] abbreviates: A 0.19 ppm + NS 2500 ppm + AMS 20,400 ppm.
[5] abbreviates: treatment #12: A 0.19 ppm + AMS 20,400 ppm.
Setting [6] is: treatment #14: A 0.19 ppm + NS 1250 ppm + AMS 20,400 ppm.
Where [7] appears, read: treatment #15: A 0.19 ppm + NS 2500 ppm + AMS 20,400 ppm.
Where [8] appears, read: treatment #16: A 0.19 ppm + NS 1250 ppm + AMS 10,200 ppm.

Several values for one entry are separate records, joined by “and”; a condition that tells them apart may be missing. Equal values may be shown once. Marks after values point to notes of the source that are not given here.

For the compound `N.N.O=S(=O)(O)O` [AMS, ammonium sulfate], the Aphid count/plant (treatment #4: AMS 20,400 ppm alone) is 35 and 36 and 38 and 31. Besides, under “treatment #5: AMS 10,200 ppm alone”, the “% Control (negative values to 0)” value came to 0.0%.
For the compound `CC(c1ccc(C(F)(F)F)nc1)S(C)(=O)=NC#N` (stereo not drawn) [Compound A], the “% Control Colby Calculated, Mean” value runs as follows: (A 0.19 ppm + AMS 10,200 ppm) 43%; (A 0.19 ppm + AMS 20,400 ppm) 55.58%; (A 0.19 ppm + NS 1250 ppm) 58.28%; under setting [1], 58.28%; under setting [2], 60.1%; (A 0.19 ppm + NS 2500 ppm) 57%. In addition, the “% Control Colby Calculated, Mean” value by setting is: under setting [3], 57%; under setting [4], 63.3%. Moreover, the “% Control Measured, Mean” value amounted to 32% (A 0.19 ppm + AMS 10,200 ppm); 38.3% (A 0.19 ppm + AMS 20,400 ppm); 76.4% (A 0.19 ppm + NS 1250 ppm); 93.28% under setting [1]; 91.1% under setting [2]; 63.7% (A 0.19 ppm + NS 2500 ppm). The “% Control Measured, Mean” value under setting [3] worked out at 80% and the “% Control Measured, Mean” value under setting [4] was 96.33%. Also, the “T-Test Results (synergy mark)” value runs as follows: under setting [1], “T = 6.60 P = 0.0027***”; under setting [2], “T = 3.26 P = 0.022***”; under setting [4], “T = 3.68 P = 0.035***”. In addition, the synergy entry runs as follows: (A 0.19 ppm combined with AMS and surfactant, three of 4 possible mixtures statistically supported) “significant synergy”; (A 0.19 ppm combined with surfactant or AMS (two-way mixtures), 0.05% level) “no instances where synergy could be supported”. Further, the efficacy entry (A at concentrations of 1.56, 0.78 and 0.39, not combined with surfactant or AMS) is listed as “great enough that identifying synergy was not practical”. For the same compound, the “% Control (negative values to 0)” value is 85.4% and 98.1% and 64.3% and 57.9% (treatment #10: A 0.19 ppm + NS 1250 ppm); 97.9% and 98.1% and 100.0% and 68.4% under setting [6]; 95.8% and 100.0% and 89.5% under setting [7]; 97.9% and 96.3% and 100.0% and 78.9% under setting [8]; 72.9% and 98.1% and 85.7% and 63.2% (treatment #17: A 0.19 ppm + NS 2500 ppm + AMS 10,200 ppm). Further, the “Calculated Colby Value” runs as follows: (treatment #10: A 0.19 ppm + NS 1250 ppm, predicted % control) 53.6% and 63.2% and 60.2% and 56.1%; under setting [5], 56.5% and 64.4% and 43.9% and 57.5%; under setting [6], 53.6% and 63.2% and 48.7% and 74.8%; under setting [7], 60.2% and 63.2% and 43.9% and 85.8%; under setting [8], 53.6% and 63.2% and 60.2% and 56.1%. In addition, the Aphid count/plant runs as follows: under setting [5], 19 and 24 and 20; (treatment #13: A 0.19 ppm + AMS 10,200 ppm) 23 and 30 and 28 and 17.
